Reference: patent US20120014956A1, “METHODS AND COMPOSITIONS FOR PREDICTING RESPONSIVENESS TO TREATMENT WITH TNF-ALPHA INHIBITOR” (priority 2010, published 2012)

Columns and labels:
patients with early RA [1] = assay: OPTIMA genetic substudy: ACR20/50/70 response at Week 26; assay type: in vivo, human; details: Week 26
Excerpt: (§1) The objective of the study was to prospectively analyze the association of 3 genetic risk factors (HLA-DRB1 shared epitope (SE), FcγRIIb, and IL-4R) for severe RA with clinical disease activity after 26 weeks of combination therapy with adalimumab (ADA) and methotrexate (MTX) or MTX monotherapy in a substudy of OPTIMA (A Multicentre, Randomized, Double Period, Double-Blind Study to Determine the Optimal Protocol for Treatment Initiation With Methotrexate and Adalimumab Combination Therapy in Patients With Early Rheumatoid Arthritis).
(§2) OPTIMA is an ongoing 78-week study with 26- and 52-week periods. Eligible patients had RA<1 year (1987-revised ACR classification), 28-joint Disease Activity Score (DAS28)>3.2, ≧6 swollen joints […], and ≧8 tender joints (SSJC66≧8). Patients had elevated erythrocyte sedimentation rate (ESR)≧28 mm/h or C-reactive protein (CRP)≧1.5 mg/dL and ≧1 of the following: >1 erosion, rheumatoid-factor positive (RF+), or anti-cyclic citrullinated peptide antibody positive (anti-CCP+). Exclusion criteria included prior exposure to systemic anti-TNF therapies, treatment with MTX or >2 disease-modifying anti-rheumatic drugs (DMARDs), other acute inflammatory joint diseases, or steroidal or surgical treatment within 4 weeks or 2 months, respectively.
(§3) In Period 2, those combination therapy responders, e.g., meeting DAS28 low disease activity (LDA) criteria (DAS28<3.2), were re-randomized 1:1 to remain on ADA+MTX or to “step down” to PBO+MTX for Weeks 26-78. In the initial PBO+MTX monotherapy group, subjects who achieved DAS28 LDA after Period 1 remained blinded on PBO+MTX for Period 2. […] Genetic data were associated with Week-26 clinical response.
(§4) For clinical assessment, the percentage of subjects achieving a 20%, 50%, and 70% improvement from baseline ACR scores was determined after Week 26 using a non-responder imputation approach. DAS28(CRP)^1 scores were evaluated at Week 26. The proportion of subjects achieving LDA (DAS28<3.2) and remission criteria (DAS28<2.6) was determined using a non-responder imputation approach.
(§5) For statistical analyses, Allele distribution between treatment groups was evaluated using the chi-square test, or Fisher's exact test in cases where data were sparse. The chi-square test was used to compare the proportion of subject achieving ACR20/50/70 and DAS28 LDA (<3.2) or remission (<2.6) within and between treatment groups.
(§6) MTX-naïve patients were randomized 1:1 to ADA (40 mg eow)+MTX (titrated to 20 mg/wk by Week 8) or placebo (PBO)+MTX for the first 26 weeks.
(§7) The percentage of subjects achieving a 50% improvement in the ACR score from baseline was determined at Week 26 using a non-responder imputation approach. The percentage of subjects achieving DAS28(CRP) remission (DAS28<2.6) was determined at Week 26 using a non-responder imputation approach.
(§8) Allele distribution between treatment groups was evaluated using the chi-square test, or Fisher's exact test in cases where data were sparse. Multivariate logistic regression was used to evaluate the effect of treatment, individual alleles, the interaction between treatment and genetic components, and baseline demographics and disease characteristics on clinical responses at 26 weeks.
(§9) MTX-naïve pts ≧18 years old with RA<1 year and active disease (DAS28>3.2, ESR≧28 mm/h or CRP≧1.5 mg/dL), and either >1 erosions, RF+, or anti-CCP+ were randomized to ADA+MTX (N=515) or PBO+MTX (N=517) for 26 wks. This analysis presents clinical outcomes at 26 weeks by HLA-DRB1 SE copy number (0×, 1×, or 2×), IL-4R I50V (AA, AG, or GG), and FcγRIIb I232T (TT, TC, CC) alleles. Non-responder imputation was used to calculate the percent of patients achieving ACR20/50/70 and DAS28 low disease activity (LDA, DAS28<3.2) and remission (DAS28<2.6). Multiple logistic regression was used to assess the influence of potential confounding baseline variables. […]

patients with early RA [2] = assay: OPTIMA genetic substudy: DAS28 low disease activity (<3.2) and remission (<2.6) at Week 26; assay type: in vivo, human
Excerpt: as §1, §2, §3, §4, §5, §6, §7, §8, §9

Structure (SMILES): CN(Cc1cnc2nc(N)nc(N)c2n1)c1ccc(C(=O)N[C@@H](CCC(=O)O)C(=O)O)cc1 [PBO + MTX, methotrexate]
- ACR20 response, n/N subjects (patients with early RA [1]; HLA-DRB1 SE 2 copies): 36/69
- ACR50 response rate, % subjects (patients with early RA [1]; HLA-DRB1 SE 2 copies): (29%)
- ACR50 response, n/N subjects (patients with early RA [1]; HLA-DRB1 SE 2 copies): 20/69
- ACR70 response rate, % subjects (patients with early RA [1]; HLA-DRB1 SE 2 copies): (13%)
- ACR70 response, n/N subjects (patients with early RA [1]; HLA-DRB1 SE 2 copies): 9/69
- ACR50 response rate, % subjects (patients with early RA [1]; HLA-DRB1 SE 2 copies, listed as MTX): 29%
- ACR50 response rate, % subjects (patients with early RA [1]; IL-4R AA): (35%)
- ACR50 response, n/N subjects (patients with early RA [1]; IL-4R AA): 45/130
- ACR70 response rate, % subjects (patients with early RA [1]; IL-4R AA): (13%)
- ACR70 response, n/N subjects (patients with early RA [1]; IL-4R AA): 17/130
- ACR50 response rate, % subjects (patients with early RA [1]; IL-4R AG): (34%)
- ACR50 response, n/N subjects (patients with early RA [1]; IL-4R AG): 79/233
- ACR70 response rate, % subjects (patients with early RA [1]; IL-4R AG): (19%)
- ACR70 response, n/N subjects (patients with early RA [1]; IL-4R AG): 42/233
- ACR50 response rate, % subjects (patients with early RA [1]; IL-4R GG): (38%)
- ACR50 response, n/N subjects (patients with early RA [1]; IL-4R GG): 33/88
- ACR70 response rate, % subjects (patients with early RA [1]; IL-4R GG): (18%)
- ACR70 response, n/N subjects (patients with early RA [1]; IL-4R GG): 16/88
- LDA DAS28 <3.2, % subjects (patients with early RA [2]; HLA-DRB1 SE 0 copies): (30%)
- LDA DAS28 <3.2, n/N subjects (patients with early RA [2]; HLA-DRB1 SE 0 copies): 49/167
- Remission DAS28 <2.6, % subjects (patients with early RA [2]; HLA-DRB1 SE 0 copies): (17%)
- Remission DAS28 <2.6, n/N subjects (patients with early RA [2]; HLA-DRB1 SE 0 copies): 28/167
- LDA DAS28 <3.2, % subjects (patients with early RA [2]; HLA-DRB1 SE 1 copy): (23%)
- LDA DAS28 <3.2, n/N subjects (patients with early RA [2]; HLA-DRB1 SE 1 copy): 50/215
- Remission DAS28 <2.6, % subjects (patients with early RA [2]; HLA-DRB1 SE 1 copy): (16%)
- Remission DAS28 <2.6, n/N subjects (patients with early RA [2]; HLA-DRB1 SE 1 copy): 35/215
- LDA DAS28 <3.2, % subjects (patients with early RA [2]; HLA-DRB1 SE 2 copies): (24%)
- LDA DAS28 <3.2, n/N subjects (patients with early RA [2]; HLA-DRB1 SE 2 copies): 16/69
- Remission DAS28 <2.6, % subjects (patients with early RA [2]; HLA-DRB1 SE 2 copies): (16%)
- Remission DAS28 <2.6, n/N subjects (patients with early RA [2]; HLA-DRB1 SE 2 copies): 11/69
- LDA DAS28 <3.2, % subjects (patients with early RA [2]; IL-4R AA): (24%)
- LDA DAS28 <3.2, n/N subjects (patients with early RA [2]; IL-4R AA): 31/130
- Remission DAS28 <2.6, % subjects (patients with early RA [2]; IL-4R AA): (14%)
- Remission DAS28 <2.6, n/N subjects (patients with early RA [2]; IL-4R AA): 18/130
- LDA DAS28 <3.2, % subjects (patients with early RA [2]; IL-4R AG): (25%)
- LDA DAS28 <3.2, n/N subjects (patients with early RA [2]; IL-4R AG): 58/233
- Remission DAS28 <2.6, % subjects (patients with early RA [2]; IL-4R AG): (16%)
- Remission DAS28 <2.6, n/N subjects (patients with early RA [2]; IL-4R AG): 37/233
- LDA DAS28 <3.2, % subjects (patients with early RA [2]; IL-4R GG): (30%)
- LDA DAS28 <3.2, n/N subjects (patients with early RA [2]; IL-4R GG): 26/88
- Remission DAS28 <2.6, % subjects (patients with early RA [2]; IL-4R GG): (22%)
- Remission DAS28 <2.6, n/N subjects (patients with early RA [2]; IL-4R GG): 19/88
